This is an account of results in patent US9688712B2, “Manufacturing method for polyphenol composition” (KAO CORPORATION, priority 2010, dated 2017).

The nature of series [1]: Measurement of log P value of the hardly water-soluble polyphenols (flask shaking method, JIS Z7260-107). On the procedure:
The log P value is a common logarithm of the partition coefficient between 1-octanol, and water and an index indicative of a hydrophobicity of an organic compound. Larger positive log P value indicates larger hydrophobicity. […] The details are described in Examples.
[Measurement of Log P Value of the Hardly Water-Soluble Polyphenols]
First, 1-octanol and distilled water were shaken for 24 hours at 25° C. to equilibrate them. Then, 10 mg of polyphenol was weighed into a glass vial with a cap, into which each of 4 mL of the equilibrated 1-octanol and water was added. The vial was shaken for 4 days at 25° C. […] Log P value is a common logarithm of the partition coefficient between the two phases.

The conditions of series [2]: cited from earlier work.

Where two headings read alike, the source gives them in different places.

The logP is a log measure of how a compound divides between an organic and an aqueous phase. A low value points to a more hydrophilic compound. `COc1cc(/C=C/C(=O)CC(=O)/C=C/c2ccc(O)c(OC)c2)ccc1O` [curcumin] registered a logP at 4 days in series [1] of 3.29.

For `Oc1ccc(C=Cc2cc(O)cc(O)c2)cc1` [resveratrol], the logP at 4 days in series [1] (1-octanol/water) came out at 3.08.

For `COc1ccc([C@@H]2CC(=O)c3c(O)cc(O[C@@H]4O[C@H](CO[C@@H]5O[C@@H](C)[C@H](O)[C@@H](O)[C@H]5O)[C@@H](O)[C@H](O)[C@H]4O)cc3O2)cc1O` [Hesperidin, hesperidin], the “solubility in water at 25° C.” value in series [2] is given as 0.02 mg/g.
